The record followed here is patent publication US9649309B2 (priority 2014, dated 2017).

One assay addresses Axl (Homo sapiens (Human), UniProt P30530). As to conditions: read-out: IC50 Axl.
The next assay concerns the target Tyro3 (Homo sapiens (Human), UniProt Q06418). The note with it: read-out: IC50 Tyro3.

As a reminder, the IC50 is the concentration needed to halve the response being measured.

Axl, sequence (P30530 26-894 limits assumed): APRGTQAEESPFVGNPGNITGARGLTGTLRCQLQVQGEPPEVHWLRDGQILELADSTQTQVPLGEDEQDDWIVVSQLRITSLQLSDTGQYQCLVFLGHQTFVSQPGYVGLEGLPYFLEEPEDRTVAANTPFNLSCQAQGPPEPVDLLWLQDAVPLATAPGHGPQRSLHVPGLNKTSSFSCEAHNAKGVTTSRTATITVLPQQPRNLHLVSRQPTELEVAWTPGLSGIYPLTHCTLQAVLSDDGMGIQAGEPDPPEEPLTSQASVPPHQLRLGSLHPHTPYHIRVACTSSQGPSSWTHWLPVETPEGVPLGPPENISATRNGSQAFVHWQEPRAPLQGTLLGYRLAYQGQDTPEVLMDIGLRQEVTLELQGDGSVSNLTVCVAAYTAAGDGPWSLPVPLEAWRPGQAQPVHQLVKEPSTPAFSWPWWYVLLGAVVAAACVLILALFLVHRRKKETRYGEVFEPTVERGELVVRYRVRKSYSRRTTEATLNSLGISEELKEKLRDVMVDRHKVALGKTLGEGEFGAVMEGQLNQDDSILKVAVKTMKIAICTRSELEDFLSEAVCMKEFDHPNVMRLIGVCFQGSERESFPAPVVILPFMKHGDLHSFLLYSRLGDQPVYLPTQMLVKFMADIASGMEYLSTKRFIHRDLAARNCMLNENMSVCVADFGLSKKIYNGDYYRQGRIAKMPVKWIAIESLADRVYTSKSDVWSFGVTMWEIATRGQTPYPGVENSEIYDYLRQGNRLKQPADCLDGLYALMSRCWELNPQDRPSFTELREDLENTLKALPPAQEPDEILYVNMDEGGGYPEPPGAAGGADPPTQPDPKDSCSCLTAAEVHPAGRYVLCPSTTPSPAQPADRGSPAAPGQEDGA
Tyro3, sequence (Q06418 41-890 limits assumed): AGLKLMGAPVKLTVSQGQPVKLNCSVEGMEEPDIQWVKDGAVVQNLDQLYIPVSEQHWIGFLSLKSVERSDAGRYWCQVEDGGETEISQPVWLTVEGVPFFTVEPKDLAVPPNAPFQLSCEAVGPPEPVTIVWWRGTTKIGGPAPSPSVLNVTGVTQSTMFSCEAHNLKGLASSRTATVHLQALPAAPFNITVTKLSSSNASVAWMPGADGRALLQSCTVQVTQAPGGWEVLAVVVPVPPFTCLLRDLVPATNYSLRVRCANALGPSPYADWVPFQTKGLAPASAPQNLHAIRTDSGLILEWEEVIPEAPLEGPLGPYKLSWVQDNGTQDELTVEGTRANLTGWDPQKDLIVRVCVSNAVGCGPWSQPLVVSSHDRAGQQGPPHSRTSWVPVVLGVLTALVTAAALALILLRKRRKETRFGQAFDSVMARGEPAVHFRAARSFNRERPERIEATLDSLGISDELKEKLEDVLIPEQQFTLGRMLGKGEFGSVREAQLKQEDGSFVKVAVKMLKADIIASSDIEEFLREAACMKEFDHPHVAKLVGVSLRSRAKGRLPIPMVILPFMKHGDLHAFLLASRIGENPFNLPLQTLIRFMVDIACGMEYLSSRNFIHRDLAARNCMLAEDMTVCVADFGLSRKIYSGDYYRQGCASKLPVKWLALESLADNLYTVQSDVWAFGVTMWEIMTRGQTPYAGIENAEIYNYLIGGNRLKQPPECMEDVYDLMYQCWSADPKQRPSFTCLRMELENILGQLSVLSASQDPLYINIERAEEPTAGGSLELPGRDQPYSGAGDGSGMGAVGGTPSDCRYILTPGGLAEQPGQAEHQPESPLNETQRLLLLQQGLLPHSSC

For `CCCCNc1ncc(C(=O)NCCCN2CCOCC2)c(NCCCC)n1` [UNC1840A], the half-maximal inhibitory concentration (IC50) amounted to 5540 nM on Axl and 4640 nM on Tyro3.
In the case of `CCCCNc1ncc(C(=O)NCC2CCCCC2)c(N[C@H]2CC[C@H](O)CC2)n1` [UNC2603A], the figures for the 50% inhibitory concentration (IC50) at Axl and at Tyro3 were 1120 nM and 506 nM, respectively.
Take `CCCCNc1ncc(C(=O)NCC(=O)N2CCCCC2)c(N[C@H]2CC[C@H](O)CC2)n1` [UNC2604A]: the IC50 was 1200 nM at Axl and 412 nM at Tyro3.
For `CCCCNc1ncc(-c2ccc(NC(=O)C3CC3)cn2)c(NC2CCC(O)CC2)n1` (stereo not shown) [UNC2711A], the half-inhibitory concentration (IC50) on Axl worked out at 644 nM; on Tyro3, 265 nM.
Taken in the same sequence, the figures for `CCCCNc1ncc(-c2ccc(NC(=O)C3CCCCC3)cn2)c(NC2CCC(O)CC2)n1` (stereo not shown) [UNC2712A] were 364 nM and 209 nM.
For `CCCCNc1ncc(-c2ccc(NC(=O)c3ccccc3)cn2)c(NC2CCC(O)CC2)n1` (stereo not shown) [UNC2713A], the IC50 was found to be 522 nM at Axl and 325 nM at Tyro3.
As to `CCCCNc1ncc(C(=O)NCc2ccc(-n3cccn3)cc2)c(N[C@H]2CC[C@H](O)CC2)n1` [UNC2744A], the IC50 amounted to 277 nM at Axl and 172 nM at Tyro3.
With `CCCCNc1ncc(C(=O)NCc2cccs2)c(N[C@H]2CC[C@H](O)CC2)n1` [UNC2762A], the IC50 on Axl was 220 nM; on Tyro3, 148 nM.
For `CCCCNc1ncc(C(=O)NCc2cccc3ccccc23)c(N[C@H]2CC[C@H](O)CC2)n1` [UNC2763A], the values for the IC50 at Axl and at Tyro3 were 1090 nM and 502 nM, respectively.
With `CCCCNc1ncc(C(=O)Nc2ccc(CN3CCN(C)CC3)cc2)c(N[C@H]2CC[C@H](O)CC2)n1` [UNC2764A], the IC50 on Axl worked out at 177 nM.
Consider `CCCCNc1ncc(-c2ccc(NC(=O)C3CCC3)cn2)c(NC2CCC(O)CC2)n1` (stereo not shown) [UNC2790A], for which the IC50 on Axl is 835 nM; on Tyro3, 338 nM.
Taken in the same sequence, the figures for `CCCCNc1ncc(-c2ccc(NC(=O)C3CCCC3)cn2)c(NC2CCC(O)CC2)n1` (stereo not shown) [UNC2791A] were 886 nM and 416 nM.
In the case of `CCCCNc1ncc(C(=O)NC2CCN(CCc3ccccc3)CC2)c(N[C@H]2CC[C@H](O)CC2)n1` [UNC2800A], the IC50 on Axl stood at 314 nM; at Tyro3 it was 130 nM.
Taken in the same sequence, the figures for `CCCCNc1ncc(C(=O)NC2CCN(CCCc3ccccc3)CC2)c(N[C@H]2CC[C@H](O)CC2)n1` [UNC2801A] were 205 nM and 113 nM.
Taken in the same sequence, the figures for `CCCCNc1ncc(C(=O)NC2CCN(Cc3cccnc3)CC2)c(N[C@H]2CC[C@H](O)CC2)n1` [UNC2802A] were 408 nM and 123 nM.
For `CCCCNc1ncc(C(=O)NCc2ccc(N3CCOCC3)cc2)c(N[C@H]2CC[C@H](O)CC2)n1` [UNC2804A], the IC50 came to 592 nM at Axl and 210 nM at Tyro3.
For the compound `CCCCNc1ncc(C(=O)Nc2ccc(CCN3CCOCC3)cc2)c(N[C@H]2CC[C@H](O)CC2)n1` [UNC2805A], the IC50 came out at 409 nM at Axl and 184 nM at Tyro3.
Taken in the same sequence, the figures for `CCCCNc1ncc(C(=O)Nc2ccc(CCN3CCN(C)CC3)cc2)c(N[C@H]2CC[C@H](O)CC2)n1` [UNC2806A] were 266 nM and 98 nM.
Taken in the same sequence, the figures for `CCCCNc1ncc(C(=O)NC2CCN(CC3CCCCC3)CC2)c(N[C@H]2CC[C@H](O)CC2)n1` [UNC2877A] were 245 nM and 230 nM.
Regarding `CCCCNc1ncc(C(=O)NC2CCN(CC3CCCC3)CC2)c(N[C@H]2CC[C@H](O)CC2)n1` [UNC2878A], the IC50 at Axl amounted to 191 nM; at Tyro3, 166 nM.
Taken in the same sequence, the figures for `CCCCNc1ncc(C(=O)NCc2ccc(-n3cccc3)cc2)c(N[C@H]2CC[C@H](O)CC2)n1` [UNC2880A] were 812 nM and 559 nM.
Taken in the same sequence, the figures for `CCCCNc1ncc(C(=O)NCc2ccc(N3CCCC3)cc2)c(N[C@H]2CC[C@H](O)CC2)n1` [UNC2886A] were 325 nM and 183 nM.
Taken in the same sequence, the figures for `CCCCNc1ncc(-c2ccc(C=O)o2)c(N[C@H]2CC[C@H](O)CC2)n1` [UNC2902A, 5-(2-(Butylamino)-4-((trans-4-hydroxycyclohexyl)amino)pyrimidin-5-yl)furan-2-carbaldehyde] were 1630 nM and 241 nM.
On to `CCCCNc1ncc(C(=O)NC2CCN(Cc3ccc(N4CCOCC4)cc3)CC2)c(N[C@H]2CC[C@H](O)CC2)n1` [UNC2918A], for which the figures for the IC50 at Axl and on Tyro3 were 667 nM and 145 nM, respectively.
For `CCCCNc1ncc(C(=O)NCc2ccc(-n3cnc(C)c3)cc2)c(N[C@H]2CC[C@H](O)CC2)n1` [UNC2956A], the IC50 at Axl is 136 nM; on Tyro3, 200 nM.
For the compound `CCCCNc1ncc(C(=O)NCc2ccc(-n3ccnc3-c3ccccc3)cc2)c(N[C@H]2CC[C@H](O)CC2)n1` [UNC2957A], the IC50 on Axl worked out at 593 nM; at Tyro3, 975 nM.
For `CCCCNc1ncc(-c2ccccn2)c(NCCCCCO)n1` [UNC2964A], the IC50 on Axl was determined as 5270 nM; on Tyro3, 2770 nM.
On to `CCCCNc1ncc(C(=O)NCc2ccc(-n3cnc(-c4ccccc4)c3)cc2)c(N[C@H]2CC[C@H](O)CC2)n1` [UNC2969A], for which the 50% inhibitory concentration (IC50) at Axl is 667 nM; at Tyro3, 1060 nM.
As to `CCCCNc1ncc(-c2ccccn2)c(NCCO)n1` [UNC2997A], the IC50 on Axl is 30000 nM; on Tyro3, 20000 nM.
For `CCCCNc1ncc(-c2ccccn2)c(Nc2ccc(O)cc2)n1` [UNC2998A], the IC50 at Axl turned out to be 30000 nM; on Tyro3 it was 363 nM.
Taken in the same sequence, the figures for `CCCCNc1ncc(C(=O)NCc2ccc(-n3ccnc3C)cc2)c(N[C@H]2CC[C@H](O)CC2)n1` [UNC3004A] were 822 nM and 272 nM.
Taken in the same sequence, the figures for `CCCCNc1ncc(-c2cnc(N)cn2)c(N[C@H]2CC[C@H](O)CC2)n1` [UNC3041A] were 968 nM and 605 nM.
With `CCCCNc1ncc(-c2ccc(C(=O)O)nn2)c(N[C@H]2CC[C@H](O)CC2)n1` [UNC3042A], the IC50 at Axl is 558 nM; at Tyro3, 192 nM.
In the case of `CCCCNc1ncc(-c2cnc(N)c(OC)n2)c(N[C@H]2CC[C@H](O)CC2)n1` [UNC3043A], the IC50 at Axl was determined as 2310 nM; on Tyro3, 1640 nM.
Turning to `CCCCNc1ncc(-c2ccc(N3CCCC3)nn2)c(N[C@H]2CC[C@H](O)CC2)n1` [UNC3044A], the IC50 at Axl turned out to be 912 nM; on Tyro3 it was 377 nM.
Taken in the same sequence, the figures for `CCCCNc1ncc(-c2nccs2)c(N[C@H]2CC[C@H](O)CC2)n1` [UNC3047A] were 597 nM and 157 nM.
Taken in the same sequence, the figures for `CCCCNc1ncc(-c2ccc(OC)nn2)c(N[C@H]2CC[C@H](O)CC2)n1` [UNC3049A] were 4440 nM and 221 nM.
Taken in the same sequence, the figures for `CCCCNc1ncc(-c2ccc(NC3CC3)nn2)c(N[C@H]2CC[C@H](O)CC2)n1` [UNC3069A] were 419 nM and 176 nM.
As to `CCCCNc1ncc(-c2ccc(-c3cccc(C(=O)O)c3)nn2)c(N[C@H]2CC[C@H](O)CC2)n1` [UNC3141A], the IC50 at Axl was found to be 30000 nM.
Regarding `CCCCNc1ncc(-c2ccc(CN3CC(C)NC(C)C3)cn2)c(NC2CCC(O)CC2)n1` (stereo not shown) [UNC4105A], the half-inhibitory concentration (IC50) on Tyro3 is 27 nM.
Same read-out and setting: then `CCCCNc1ncc(-c2ccc(CN3CCNCC3(C)C)cn2)c(NC2CCC(O)CC2)n1` (stereo not shown) [UNC4110A], with 19 nM.
Turning to `CCCCNc1ncc(C(=O)NCc2ccon2)c(N[C@H]2CC[C@H](O)CC2)n1` [UNC4290A], the IC50 on Tyro3 amounted to 375 nM.
